From publication PMC12027278, “Study of Lysozyme Activity in Bird Egg Whites by Fluorescence Polarization Assay Using Chitooligosaccharide Tracer” (Foods, 2025)

Tests used:
[1] = target: T1, hen egg white lysozyme (HEWL); hen egg lysozyme (Sigma) (Gallus gallus, UniProt P00698); assay: fluorescence polarization; type: biochemical; conditions: 25 mM phosphate, 0.15 M NaCl, pH 7.4, 25 °C; tracer 3 nM, HEWL 100 µg/mL, added after pre-incubation with non-reactive egg whites; labelled compound
T1 construct: gene LYZ; native mature enzyme, 129 residues, commercial (Sigma) for tracer 2; endogenous in diluted egg white for tracer 1

[2] = target: T1, hen egg white lysozyme (HEWL); hen egg lysozyme (Sigma); assay: fluorescence polarization, egg white; type: biochemical; conditions: 25 mM phosphate, 0.15 M NaCl, pH 7.4, 25 °C; tracer 3 nM; diluted egg white; labelled compound

T1 sequence (P00698 19-147): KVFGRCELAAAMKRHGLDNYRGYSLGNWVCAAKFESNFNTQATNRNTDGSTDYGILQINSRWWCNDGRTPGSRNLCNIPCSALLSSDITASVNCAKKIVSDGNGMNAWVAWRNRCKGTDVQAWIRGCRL

Structure (SMILES) | fluorescence polarization [1] | fluorescence polarization, egg white [2]
CC(=O)N[C@H]1[C@H](OCCNC(=S)Nc2ccc3c(c2)C(=O)OC32c3ccc(O)cc3Oc3cc(O)ccc32)O[C@H](CO)[C@@H](O[C@@H]2O[C@H](CO)[C@@H](O[C@@H]3O[C@H](CO)[C@@H](O[C@@H]4O[C@H](CO)[C@@H](O[C@@H]5O[C@H](CO)[C@@H](O)[C@H](O)[C@H]5NC(C)=O)[C@H](O)[C@H]4NC(C)=O)[C@H](O)[C@H]3NC(C)=O)[C@H](O)[C@H]2NC(C)=O)[C@@H]1O [compound 2, tracer 2] | A sharp increase in the FP signal followed by a decrease over time was observed | –
CC(=O)N[C@H]1[C@H](OCCNC(=S)Nc2ccc3c(c2)C(=O)OC32c3ccc(O)cc3Oc3cc(O)ccc32)O[C@H](CO)[C@@H](O[C@@H]2O[C@H](CO)[C@@H](O[C@@H]3O[C@H](CO)[C@@H](O)[C@H](O)[C@H]3NC(C)=O)[C@H](O)[C@H]2NC(C)=O)[C@@H]1O [compound 1, tracer 1] | – | a rapid increase in the FP signal was observed, followed by a stable plateau (Figure 6b)
